Consider 1 compound from patent publication US7601686B2, “Hepatitis C virus inhibitors” (Bristol-Myers Squibb Company, priority 2005, dated 2009).

Like-named read-outs stand apart in the source and are kept apart here.

The target in assay [1] is T1, human neutrophil elastase (HNE) (Homo sapiens, UniProt P08246).
T1 construct: purchased Sigma
T1 sequence (P08246 30-267): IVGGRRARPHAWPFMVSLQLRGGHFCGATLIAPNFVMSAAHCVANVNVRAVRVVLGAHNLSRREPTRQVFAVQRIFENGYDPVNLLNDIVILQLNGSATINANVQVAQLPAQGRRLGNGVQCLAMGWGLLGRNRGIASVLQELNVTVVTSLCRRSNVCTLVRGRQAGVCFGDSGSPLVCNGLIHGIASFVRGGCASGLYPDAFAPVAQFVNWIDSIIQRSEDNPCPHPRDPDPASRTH
In words: Specificity assay, human neutrophil elastase. To be noted: 2 h enzyme-inhibitor pre-incubation; read-out: HLE activity in the specificity assays. It counts as biochemical. As for the experimental part: (§1) The specificities of compounds of the present disclosure were determined against a variety of serine proteases: human neutrophil elastase (HNE), porcine pancreatic elastase (PPE) and human pancreatic chymotrypsin and one cysteine protease: human liver cathepsin B. In all cases a 96-well plate format protocol using colorimetric p-nitroaniline (pNA) substrate specific for each enzyme was used as described previously (PCT Patent Application No. WO 00/09543) with some modifications to the serine protease assays. All enzymes were purchased from Sigma while the substrates were from Bachem.
(§2) Each assay included a 2 h enzyme-inhibitor pre-incubation at room temperature followed by addition of substrate and hydrolysis to ˜30% conversion as measured on a Spectramax Pro microplate reader. Compound concentrations varied from 100 to 0.4 μM depending on their potency.
(§3) The final conditions for each assay were the same as those described in WO 03/099274, page 623.
(§4) The percentage of inhibition was calculated using the formula: [1−((UVinh−UVblank)/(UVctl−UVblank))]×100
(§5) A non-linear curve fit was applied to the inhibition-concentration data, and the 50% effective concentration (IC50) was calculated by the use of Excel XLfit software.

The next assay concerns the target T2, human liver cathepsin B (Homo sapiens, UniProt P07858).
T2 construct: purchased Sigma; host or cells: human liver
The experiment in a line: Specificity assay, cathepsin B. The class given is biochemical. To be noted: 2 h enzyme-inhibitor pre-incubation; read-out: Cathepsin B activity in the specificity assays. The method, then: as §1, §2, §3, §4, §5

Assay [2] concerns the target T3, porcine pancreatic elastase (PPE) (Sus scrofa, UniProt P00772).
T3 construct: purchased Sigma
In words: Specificity assay, porcine pancreatic elastase. The class given is biochemical. Conditions: 2 h enzyme-inhibitor pre-incubation; read-out: PPE activity in the specificity assays. The method, then: as §1, §2, §3, §4, §5

The target of assay [3] is T4, HCV NS3/4A protease complex, BMS strain (UniProt P27958, species not given/STRAIN_BMS).
T4 construct: DNA encoding the recombinant HCV NS3/4A protease complex (amino acids 1027 to 1711) for these strains [H77 and J4L6S]; fused on or other part: For the H77 and J4L6S constructs, a three-lysine solubilising tail at the NS4A C-terminus and a Ni-NTA-purifiable tag from pET21b
T4 sequence (P27958 1027-1657, stated change not applied, one chain of several): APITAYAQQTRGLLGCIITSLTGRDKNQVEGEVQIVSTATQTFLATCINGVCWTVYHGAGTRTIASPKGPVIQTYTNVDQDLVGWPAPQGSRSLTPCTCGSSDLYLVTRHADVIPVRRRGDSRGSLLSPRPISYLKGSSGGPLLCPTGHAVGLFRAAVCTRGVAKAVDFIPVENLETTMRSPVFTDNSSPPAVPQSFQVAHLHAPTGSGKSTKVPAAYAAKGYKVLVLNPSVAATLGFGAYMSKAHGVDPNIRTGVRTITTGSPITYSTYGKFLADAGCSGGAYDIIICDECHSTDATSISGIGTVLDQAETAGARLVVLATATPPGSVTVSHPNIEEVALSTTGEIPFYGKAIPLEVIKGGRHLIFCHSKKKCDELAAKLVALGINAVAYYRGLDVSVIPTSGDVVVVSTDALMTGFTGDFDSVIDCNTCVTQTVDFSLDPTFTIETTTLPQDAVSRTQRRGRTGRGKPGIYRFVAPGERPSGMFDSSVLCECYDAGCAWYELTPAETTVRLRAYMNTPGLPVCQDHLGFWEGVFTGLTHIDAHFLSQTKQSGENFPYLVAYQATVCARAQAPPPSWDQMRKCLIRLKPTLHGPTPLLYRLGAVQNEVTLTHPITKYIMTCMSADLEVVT
In words: FRET peptide assay to monitor HCV NS3/4A proteolytic activity (BMS strain). To be noted: NS3/4A BMS strain, enzyme assay. It counts as biochemical, Hepatitis C virus (genotype 1a). The essentials: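 Recombinant NS3/4A complexes (aa 1027–1711) with C-terminal three-lysine tail, C1711G and C1454S, expressed in E. coli BL21(DE3) (0.5 mM IPTG, 22 h, 20°C) for H77 (1a) and J4L6S (1b); BMS strain is genotype 1a patient isolate. Purified by Ni-NTA and Superdex-S200; proteolysis monitored by FRET peptide cleavage.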

T3 sequence (P00772 27-266): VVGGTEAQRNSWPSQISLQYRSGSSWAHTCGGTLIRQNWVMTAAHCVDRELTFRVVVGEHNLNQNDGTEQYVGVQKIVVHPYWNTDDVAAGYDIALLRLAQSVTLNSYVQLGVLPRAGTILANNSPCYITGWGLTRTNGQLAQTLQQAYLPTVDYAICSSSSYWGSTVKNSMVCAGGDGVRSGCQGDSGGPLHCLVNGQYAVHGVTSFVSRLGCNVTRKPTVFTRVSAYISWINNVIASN

Regarding `C=CC1CC1(NC(=O)[C@@H]1C[C@@H](NC(=O)c2cc(-c3ccccc3)nc3ccccc23)CN1C(=O)[C@@H](NC(=O)CC1CC1)C(C)(C)C)C(=O)NS(=O)(=O)C1CC1` (some centres unmarked) [Compound 9], the IC50 is over 100 µM in assay [1]; over 100 µM on human liver cathepsin B; over 100 µM in assay [2]; 47 nM in assay [3]; under 150 nM in assay [3] (read-out: IC 50 Range).
